Paper PMC12446476 (Nature Communications, 2025)
Values joined by “and” are separate entries in the source; they are usually repeats but may differ in a detail not shown here. Identical values can stand only once. Like-named read-outs stand apart in the source and are kept apart here.

Tests used:
[1] = system: Salmonella typhimurium (TA1535, TA1537, TA98 and TA100); assay type: cell-based
Description: Ames assays were performed using four strains of Salmonella typhimurium (TA1535, TA1537, TA98 and TA100) and a single strain of E. coli (WRP2 uvrA) in the presence and absence of S9 tissue homogenate. Dose levels (µg/plate) up to 4000 were assessed for WP2 uvrA and TA98, 500 for TA1535, 250 for TA1537 and 62.5 for TA100.

human lymphocytes = test: In vitro micronucleus test; assay type: cell-based
[2] = TA98, without S9, 62.5 µg/plate
[3] = TA100, without S9, 15.6 µg/plate
[4] = TA100, without S9, 31.3 µg/plate
[5] = TA1535, without S9, 10 µg/plate
[6] = TA1535, without S9, 15.6 µg/plate
[7] = TA1535, without S9, 31.3 µg/plate
[8] = TA1535, without S9, 62.5 µg/plate
[9] = TA1535, without S9, 250 µg/plate
[10] = TA1537, without S9, 10 µg/plate
[11] = TA1537, without S9, 15.6 µg/plate
[12] = TA1537, without S9, 31.3 µg/plate
[13] = TA1537, without S9, 62.5 µg/plate

Description for Caco-2 cell monolayers: Various controls were assessed in parallel, including atenolol (low permeability) and diclofenac (high permeability).
The instrument operated in positive ionisation mode (ESI + ) over a m/z range of 80–1000 (n = 1 measure per sample). Data were extracted from chromatograms using calculated monoisotopic accurate masses for protonated molecular ions within 5 ppm windows.

SMILES: Cc1c(CN(C)C(=O)/C=C/c2cnc3c(c2)N[C@H](C)[C@H](OP(=O)([O-])[O-])C(=O)N3)oc2ccccc12.[Na+].[Na+] [Debio 1453 P]
- Ames bacterial mutation assessment, Mean ([1]; TA98, with S9, 62.5 µg/plate): 34
- Colony count ([1]; TA98, with S9, 62.5 µg/plate): 35 and 36 and 30
- Ames bacterial mutation assessment, Mean ([1]; TA98, with S9, 250 µg/plate): 26
- Colony count ([1]; TA98, with S9, 250 µg/plate): 28 and 26 and 23
- Ames bacterial mutation assessment, Mean ([1]; TA98, with S9, 500 µg/plate): 12
- Colony count ([1]; TA98, with S9, 500 µg/plate): 14 and 12 and 11
- Ames bacterial mutation assessment, Mean [1, 2]: 32
- Colony count [1, 2]: 36 and 29 and 32
- Ames bacterial mutation assessment, Mean ([1]; TA98, without S9, 250 µg/plate): 22
- Colony count ([1]; TA98, without S9, 250 µg/plate): 24 and 21 and 20
- Ames bacterial mutation assessment, Mean ([1]; TA98, without S9, 500 µg/plate): 12
- Colony count ([1]; TA98, without S9, 500 µg/plate): 12 and 13 and 10
- Ames bacterial mutation assessment, Mean ([1]; TA100, with S9, 5 µg/plate): 141
- Colony count ([1]; TA100, with S9, 5 µg/plate): 143 and 140 and 141
- Ames bacterial mutation assessment, Mean ([1]; TA100, with S9, 10 µg/plate): 128
- Colony count ([1]; TA100, with S9, 10 µg/plate): 123 and 133 and 128
- Ames bacterial mutation assessment, Mean ([1]; TA100, with S9, 15.6 µg/plate): 60
- Colony count ([1]; TA100, with S9, 15.6 µg/plate): 57 and 59 and 64
- Ames bacterial mutation assessment, Mean ([1]; TA100, with S9, 31.3 µg/plate): 30
- Colony count ([1]; TA100, with S9, 31.3 µg/plate): 30 and 29 and 32
- Ames bacterial mutation assessment, Mean ([1]; TA100, without S9, 5 µg/plate): 146
- Colony count ([1]; TA100, without S9, 5 µg/plate): 146 and 143 and 149
- Ames bacterial mutation assessment, Mean ([1]; TA100, without S9, 10 µg/plate): 134
- Colony count ([1]; TA100, without S9, 10 µg/plate): 125 and 145 and 131
- Ames bacterial mutation assessment, Mean [1, 3]: 59
- Colony count [1, 3]: 66 and 54 and 58
- Ames bacterial mutation assessment, Mean [1, 4]: 33
- Colony count [1, 4]: 32 and 31 and 36
- Ames bacterial mutation assessment, Mean ([1]; TA1535, with S9, 10 µg/plate): 18
- Colony count ([1]; TA1535, with S9, 10 µg/plate): 19 and 16
- Ames bacterial mutation assessment, Mean ([1]; TA1535, with S9, 15.6 µg/plate): 15
- Colony count ([1]; TA1535, with S9, 15.6 µg/plate): 18 and 14
- Ames bacterial mutation assessment, Mean ([1]; TA1535, with S9, 31.3 µg/plate): 16
- Colony count ([1]; TA1535, with S9, 31.3 µg/plate): 17 and 16 and 14
- Ames bacterial mutation assessment, Mean ([1]; TA1535, with S9, 62.5 µg/plate): 14
- Colony count ([1]; TA1535, with S9, 62.5 µg/plate): 15 and 12 and 16
- Ames bacterial mutation assessment, Mean ([1]; TA1535, with S9, 250 µg/plate): 6
- Colony count ([1]; TA1535, with S9, 250 µg/plate): 5 and 7
- Ames bacterial mutation assessment, Mean ([1]; TA1535, with S9, 500 µg/plate): 5
- Colony count ([1]; TA1535, with S9, 500 µg/plate): 6 and 5
- Ames bacterial mutation assessment, Mean [1, 5]: 19
- Colony count [1, 5]: 18 and 21
- Ames bacterial mutation assessment, Mean [1, 6]: 17
- Colony count [1, 6]: 17 and 16
- Ames bacterial mutation assessment, Mean [1, 7]: 13
- Colony count [1, 7]: 14 and 13
- Ames bacterial mutation assessment, Mean [1, 8]: 11
- Colony count [1, 8]: 11 and 12
- Ames bacterial mutation assessment, Mean [1, 9]: 6
- Colony count [1, 9]: 6 and 8 and 4
- Ames bacterial mutation assessment, Mean ([1]; TA1535, without S9, 500 µg/plate): 4
- Ames bacterial mutation assessment, Mean ([1]; TA1537, with S9, 10 µg/plate): 17
- Colony count ([1]; TA1537, with S9, 10 µg/plate): 16 and 19
- Ames bacterial mutation assessment, Mean ([1]; TA1537, with S9, 15.6 µg/plate): 18
- Colony count ([1]; TA1537, with S9, 15.6 µg/plate): 19 and 16 and 18
- Ames bacterial mutation assessment, Mean ([1]; TA1537, with S9, 31.3 µg/plate): 10
- Colony count ([1]; TA1537, with S9, 31.3 µg/plate): 10 and 11 and 9
- Ames bacterial mutation assessment, Mean [1, 10]: 19
- Colony count [1, 10]: 17 and 20 and 19
- Ames bacterial mutation assessment, Mean [1, 11]: 18
- Colony count [1, 11]: 19 and 20 and 16
- Ames bacterial mutation assessment, Mean [1, 12]: 15
- Colony count [1, 12]: 16 and 14
- Ames bacterial mutation assessment, Mean [1, 13]: 7
- Colony count [1, 13]: 8 and 6
- Ames assay result ([1]; presence and absence of S9, highest concentrations tested): non-mutagenic
- in vitro micronucleus test result (human lymphocytes): negative
- Apparent permeability (Papp) (Caco-2 cell monolayers): negligible
- permeability through transwells A → B (Caco-2 cell monolayers): 31.8 ×10⁻⁶ cm/s
